Patent US20240277799A1, “Translational Activators, Including Methods of Discovery and Uses Thereof” (The Board of Trustees of the Leland Stanford Junior …, priority 2023, published 2024)

How the values were obtained:
[1] = tested on: A459 cells transfected with siRNA targeting RPL11 (siRPL11); assay: global protein synthesis in cells with insufficient global protein synthesis (siRPL11); type: cell-based; details: FIGS. 4A-4D; for concentrations that increase protein synthesis, fold lower as compared to erythromycin: siRPL11 cells
Description: FIGS. 2A-2D provide data and a schematic of an example of a screening method to discover and/or identify translational activators. In this example, cells with decreased global protein synthesis via small interfering RNA (siRNA) knockdown of an RP are cultured within a multi-well format. Each well of cultured cells is contacted with a compound and then examined for global protein synthesis. Compounds that increased global protein synthesis were considered a putative translational activator for further examination.
To begin, cells are prepared (FIG. 2B). In some embodiments, cells having decreased global protein translation are cultured. It should be understood that any cells can be assessed and it is not required that the cells have decreased global protein translation, but cells with decreased global protein translation may improve identification of translational activators. In some embodiments, the cells are known to have a wild-type p53 sequence, which can reduce cofounding factors. Culturing of cells can be in plates, tubes, flasks, and/or any other appropriate container. High throughput methods can use multi-well plates (e.g., 96-well, 384-well, 1536-well, etc.) or any other means for dividing a cell culture into multiple populations.
In some embodiments, the cells that are cultured are manipulated to decrease global translation. In some embodiments, cells are manipulated by reducing expression of or inhibiting functionality of a ribosomal subunit. Examples of ribosomal subunits that can be targeted include (but are not limited to) RPL5, RPL11, RPS6, and RPS19, each of which are involved in various ribosomopathies. One method to reduce ribosomal subunit expression is knockdown via antisense and/or RNA interference (RNAi) technology. […] The example method within FIG. 2B utilizes reverse transfection in which double-stranded siRNA complexes are preformed and transfected into the cells, which are then cultured.
Upon preparing the cells, the cells are then treated with compounds (FIG. 2C). In some embodiments, cultured cells are contacted with a compound to assess their effect on global protein translation. […] If using a pooling strategy, hits can be further assessed to delineate which compound (or combination of compounds) yield the beneficial effect. Compounds can be assessed at a single concentration, or multiple concentrations. […] For high-throughput assessments, multiple cell cultures (e.g., multiple wells) can be assessed concurrently, each cell culture provided with the same conditions except for the compound (or concentration thereof) utilized to contact the cells of the culture.
After a period of incubating the cell culture with a compound, global protein production can be assessed (FIG. 2D). Any readout for measuring protein synthesis can be utilized. […]

[2] = tested on: A459 cells transfected with a control siRNA (siCTRL); assay: global protein synthesis in control cells (siCTRL); type: cell-based; details: siCTRL cells with normal global synthesis; FIGS. 4A-4D
Description: FIGS. 2A-2D provide data and a schematic of an example of a screening method to discover and/or identify translational activators. In this example, cells with decreased global protein synthesis via small interfering RNA (siRNA) knockdown of an RP are cultured within a multi-well format. Each well of cultured cells is contacted with a compound and then examined for global protein synthesis. Compounds that increased global protein synthesis were considered a putative translational activator for further examination. To begin, cells are prepared (FIG. 2B). In some embodiments, cells having decreased global protein translation are cultured. It should be understood that any cells can be assessed and it is not required that the cells have decreased global protein translation, but cells with decreased global protein translation may improve identification of translational activators. […] If using a pooling strategy, hits can be further assessed to delineate which compound (or combination of compounds) yield the beneficial effect. Compounds can be assessed at a single concentration, or multiple concentrations. […] For high-throughput assessments, multiple cell cultures (e.g., multiple wells) can be assessed concurrently, each cell culture provided with the same conditions except for the compound (or concentration thereof) utilized to contact the cells of the culture. […]

[3] = cellular toxicity, relative total cell count against concentration; details: at concentrations that improve protein synthesis; FIG. 5
Description: Specifically, FIG. 5 illustrates relative total cell count is plotted against the concentration provided.

Row | SMILES | concentrations that increase protein synthesis, fold lower as compared to erythromycin [1] [fold] | increase of protein synthesis in control cells [2] | ability to increase protein synthesis ([1]; siRPL11 cells having insufficient global protein synthesis) | cellular toxicity (relative total cell count) [3]
1 | CC[C@H]1OC(=O)[C@H](C)[C@@H](O[C@H]2C[C@@](C)(OC)[C@@H](O)[C@H](C)O2)[C@H](C)[C@@H](O[C@@H]2O[C@H](C)C[C@H](N(C)C)[C@H]2O)[C@](C)(O)C[C@@H](C)CN(C)[C@H](C)[C@@H](O)[C@]1(C)O [azithromycin] | 10 | increased protein synthesis in control cells |  | 
2 | CC[C@H]1OC(=O)[C@H](C)[C@@H](O[C@H]2C[C@@](C)(OC)[C@@H](O)[C@H](C)O2)[C@H](C)[C@@H](O[C@@H]2O[C@H](C)C[C@H](N(C)C)[C@H]2O)[C@](C)(O)C[C@@H](C)C(=O)[C@H](C)[C@@H](O)[C@]1(C)O [erythromycin] |  |  | increased protein synthesis at high concentrations | 
3 | CC[C@H]1OC(=O)[C@@](C)(F)C(=O)[C@H](C)[C@@H](O[C@@H]2O[C@H](C)C[C@H](N(C)C)[C@H]2O)[C@](C)(OC)C[C@@H](C)C(=O)[C@H](C)[C@H]2N(CCCCn3cc(-c4cccc(N)c4)nn3)C(=O)O[C@]12C [solithromycin] | 10 |  |  | little to no toxicity
4 | CC[C@H]1OC(=O)[C@H](C)C(=O)[C@H](C)[C@@H](O[C@@H]2O[C@H](C)C[C@H](N(C)C)[C@H]2O)[C@](C)(OC)C[C@@H](C)C(=O)[C@H](C)[C@H]2N(CCCCn3cnc(-c4cccnc4)c3)C(=O)O[C@]12C [telithromycin] | 10 |  |  | 
